Assay results from PubChem BioAssay AID2060897 (Molecular Pharmacology Branch, DTP, NCI, 2025).

Tested on: 966289-007-R4-J1-PDC complex spheroid viability
Experiment: Anticancer human tumor 966289-007-R4-J1-PDC patient-derived pancreatic adenocarcinoma cell line growth inhibition [RAS]
Conditions: for IC50: curve of first compound; for viability, T/C: stronger effect = lower value
Summary of the method: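 Multi-cell-type spheroids: tumor cells plus HUVEC endothelial cells and mesenchymal stem cells. RAS-pathway inhibitors were combined with targeted agents, each dosed in half-log steps down from clinical Cmax, or from 10 microM when Cmax was unknown.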

[1] = second compound 0.000949 µM, first compound 0.0316 µM
[2] = second compound 0.000949 µM, first compound 0.1 µM
[3] = second compound 0.000949 µM, first compound 0.316 µM
[4] = second compound 0.000949 µM, first compound 1 µM
[5] = second compound 0.000949 µM, first compound 3.16 µM
[6] = second compound 0.000949 µM, first compound 10 µM
[7] = second compound 0.003 µM, first compound 0.0316 µM
[8] = second compound 0.003 µM, first compound 0.1 µM
[9] = second compound 0.003 µM, first compound 0.316 µM
[10] = second compound 0.003 µM, first compound 1 µM
[11] = second compound 0.003 µM, first compound 3.16 µM
[12] = second compound 0.003 µM, first compound 10 µM
[13] = second compound 0.00949 µM, first compound 0.0316 µM
[14] = second compound 0.00949 µM, first compound 0.1 µM
[15] = second compound 0.00949 µM, first compound 0.316 µM
[16] = second compound 0.00949 µM, first compound 1 µM
[17] = second compound 0.00949 µM, first compound 3.16 µM
[18] = second compound 0.00949 µM, first compound 10 µM
[19] = second compound 0.03 µM, first compound 0.0316 µM
[20] = second compound 0.03 µM, first compound 0.1 µM
[21] = second compound 0.03 µM, first compound 0.316 µM
[22] = second compound 0.03 µM, first compound 1 µM
[23] = second compound 0.03 µM, first compound 3.16 µM
[24] = second compound 0.03 µM, first compound 10 µM
[25] = second compound 0.0949 µM, first compound 0.0316 µM
[26] = second compound 0.0949 µM, first compound 0.1 µM
[27] = second compound 0.0949 µM, first compound 0.316 µM
[28] = second compound 0.0949 µM, first compound 1 µM
[29] = second compound 0.0949 µM, first compound 3.16 µM
[30] = second compound 0.0949 µM, first compound 10 µM
[31] = second compound 0.3 µM, first compound 0.0316 µM
[32] = second compound 0.3 µM, first compound 0.1 µM
[33] = second compound 0.3 µM, first compound 0.316 µM
[34] = second compound 0.3 µM, first compound 1 µM
[35] = second compound 0.3 µM, first compound 3.16 µM
[36] = second compound 0.3 µM, first compound 10 µM
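Also: spheroids exposed to agents for one week before readout.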
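For viability, T/C in this document: percent viability relative to DMSO vehicle control wells as 100%.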

Q: With `CC1(O)CCCC1n1c(=O)c(C(F)F)cc2cnc(NC3CCN(S(C)(=O)=O)CC3)nc21` (centres undefined) + CCn1c(-c2cc(N3CCN(C)CC3)cnc2C(C)OC)c2c3cc(ccc31)-c1csc(n1)CC(NC(=O)C1CC1C)C(=O)N1CCCC(N1)C(=O)OCC(C)(C)C2 as the molecule, how does the IC50 (second compound 0.000949 µM) read?
A: 0.169 µM

Q: And the IC50 (second compound 0.003 µM)?
A: 0.12 µM

Q: What about the IC50 (second compound 0.00949 µM) of the same molecule?
A: 0.108 µM

Q: And the IC50 (second compound 0.03 µM)?
A: 0.0928 µM

Q: What about the IC50 (second compound 0.0949 µM) of the same molecule?
A: 0.096 µM

Q: What about the IC50 (second compound 0.3 µM) of the same molecule?
A: 0.139 µM

Q: What about the viability, T/C [1] of the same molecule?
A: 148%

Q: And the viability, T/C [2]?
A: 63.6%

Q: And the viability, T/C [3]?
A: 28.7%

Q: And the viability, T/C [4]?
A: 29.1%

Q: And the viability, T/C [5]?
A: 26.8%

Q: What about the viability, T/C [6] of the same molecule?
A: 2.64%

Q: And the viability, T/C [7]?
A: 125%

Q: What about the viability, T/C [8] of the same molecule?
A: 51.6%

Q: What about the viability, T/C [9] of the same molecule?
A: 27.8%

Q: What about the viability, T/C [10] of the same molecule?
A: 24.4%

Q: And the viability, T/C [11]?
A: 24.8%

Q: What about the viability, T/C [12] of the same molecule?
A: 3.3%

Q: And the viability, T/C [13]?
A: 98.4%

Q: What about the viability, T/C [14] of the same molecule?
A: 52.7%

Q: What about the viability, T/C [15] of the same molecule?
A: 22.4%

Q: And the viability, T/C [16]?
A: 25.9%

Q: And the viability, T/C [17]?
A: 26%

Q: What about the viability, T/C [18] of the same molecule?
A: 3.14%

Q: And the viability, T/C [19]?
A: 85%

Q: And the viability, T/C [20]?
A: 48.6%

Q: What about the viability, T/C [21] of the same molecule?
A: 21.9%

Q: And the viability, T/C [22]?
A: 23.7%

Q: What about the viability, T/C [23] of the same molecule?
A: 25.1%

Q: What about the viability, T/C [24] of the same molecule?
A: 3%

Q: And the viability, T/C [25]?
A: 84.5%

Q: What about the viability, T/C [26] of the same molecule?
A: 47.4%

Q: What about the viability, T/C [27] of the same molecule?
A: 25.4%

Q: And the viability, T/C [28]?
A: 27.1%

Q: And the viability, T/C [29]?
A: 26.6%

Q: What about the viability, T/C [30] of the same molecule?
A: 2.94%

Q: What about the viability, T/C [31] of the same molecule?
A: 107%

Q: What about the viability, T/C [32] of the same molecule?
A: 55.9%

Q: And the viability, T/C [33]?
A: 28.7%

Q: And the viability, T/C [34]?
A: 25.8%

Q: What about the viability, T/C [35] of the same molecule?
A: 24.9%

Q: And the viability, T/C [36]?
A: 3.18%

Q: Which results are given for `CCC(CC)c1cc(NC2CCC(N)C2)n2nccc2n1` (centres undefined) + CCn1c(-c2cc(N3CCN(C)CC3)cnc2C(C)OC)c2c3cc(ccc31)-c1csc(n1)CC(NC(=O)C1CC1C)C(=O)N1CCCC(N1)C(=O)OCC(C)(C)C2?
A: IC50 (second compound 0.000949 µM): 1.43 µM; IC50 (second compound 0.003 µM): 1.55 µM; IC50 (second compound 0.00949 µM): 1.79 µM; IC50 (second compound 0.03 µM): 1.66 µM; IC50 (second compound 0.0949 µM): 1.85 µM; IC50 (second compound 0.3 µM): 1.86 µM; viability, T/C [1]: 111%; viability, T/C [2]: 89.1%; viability, T/C [3]: 99.3%; viability, T/C [4]: 71.5%; viability, T/C [5]: 1.75%; viability, T/C [6]: 1.38%; viability, T/C [7]: 72.2%; viability, T/C [8]: 98.3%; viability, T/C [9]: 89.2%; viability, T/C [10]: 79.2%; viability, T/C [11]: 2.05%; viability, T/C [12]: 1.33%; viability, T/C [13]: 81.7%; viability, T/C [14]: 103%; viability, T/C [15]: 81.9%; viability, T/C [16]: 131%; viability, T/C [17]: 1.93%; viability, T/C [18]: 1.58%; viability, T/C [19]: 72.3%; viability, T/C [20]: 86.8%; viability, T/C [21]: 92.5%; viability, T/C [22]: 98.9%; viability, T/C [23]: 1.68%; viability, T/C [24]: 2.28%; viability, T/C [25]: 86.2%; viability, T/C [26]: 111%; viability, T/C [27]: 107%; viability, T/C [28]: 119%; viability, T/C [29]: 1.88%; viability, T/C [30]: 1.55%; viability, T/C [31]: 75.7%; viability, T/C [32]: 116%; viability, T/C [33]: 116%; viability, T/C [34]: 117%; viability, T/C [35]: 2.08%; viability, T/C [36]: 1.97%
